Where two headings read alike, the source gives them in different places.

Here are results for five compounds from patent US20180230519A1, “METHODS AND KITS FOR SELECTING TREATMENT FOR ORAL INFECTIONS” (OraVital Inc., priority 2017, published 2018).

Data set [1] concerns Aggregatibacter actinomycetemcomitans. Particulars: general statement, no test described; cited from earlier work.
Data set [2] has as its system oral malodor and periodontal disease. As to conditions: human, in vivo.
Procedure: (§1) Tongue base, tongue dorsum, and proximal areas of the dentition were evaluated for odors. Biofilm samples from these areas were taken from each patient. A Gram stain analysis provided morphological information on the microorganisms present in the oral cavity. In addition, the microbiology of the teeth and tongue was tested with a BANA strip for red complex clusters. Six-point periodontal probing was used to assess pocket depth and bleeding points.
(§2) Treatment initially consisted of rinsing with chlorhexidine 0.2% for 2 weeks, twice daily.
(§3) The treatment chosen was the metronidazole-nystatin rinse prepared as described in Example 3. Three times a day, patients dispensed a “capful” (2 ml) of this mixture, swished and gargled for 30 seconds, and expectorated the contents. Once per day, they flossed immediately after rinsing. After each rinse with antibiotic mixture, patients were to abstain from eating or drinking for 30 minutes. After 2 weeks of rinsing, patients returned to the clinic for an evaluation of treatment. Breath odor measurements and periodontal measurements were repeated, and compared with those taken at the initial appointment. Microbiology samples of the tongue base, tongue dorsum, and teeth were taken, analyzed, and compared with the pre-treatment samples. Patients were then placed on chlorhexidine 0.2% for 2 more weeks, followed by routine rinsing with non-prescription mouthwashes that the patient selected.
The nature of another data set: Solubility in water. The class given is physicochemical. The procedure:
A metronidazole-nystatin mixture was prepared for use as an oral rinse to treat halitosis, gingivitis, tonsillitis, and/or mild to moderate periodontal disease. Tablets of metronidazole (APO-Metronidazole™, Apotex Corp.) were crushed and grounded, the larger particles filtered out, and the fine particles mixed with nystatin suspension or nystatin powder (Nilstat™, Alimed or PMS PharmaScience) in distilled water.

Data set [3] concerns oral malodor and periodontal disease. Briefly: Clinical study of antibiotic antifungal rinse in patients with halitosis.
Procedure: as §1, §2, §3

Consider `Cc1ncc([N+](=O)[O-])n1CCO` [metronidazole], for which, in data set [1], the “Aggregatibacter actinomycetemcomitans responds (share of the time)” value is “about 50 % of the time”. The side effects result in data set [2] is on record as “systemic side effects”. Besides, in “Solubility in water”, the solubility in water entry is “sparingly soluble or practically insoluble”.

For the compound `CCC[C@@H]1C[C@@H](C(=O)N[C@@H]([C@H]2O[C@H](SC)[C@H](O)[C@@H](O)[C@H]2O)[C@H](C)Cl)N(C)C1` [clindamycin], the side effects result in data set [3] (systemic metronidazole and clindamycin, followed by 0.2% chlorhexidine) is on record as “systemic side effects”.

Consider `CC1(C)S[C@@H]2[C@H](NC(=O)[C@H](N)c3ccc(O)cc3)C(=O)N2[C@H]1C(=O)O` [amoxicillin], for which the “response of Aggregatibacter actinomycetemcomitans” value in data set [1] was “responds best”.

Take `[H]/N=C(\N/C(=N/[H])NCCCCCCNC(=N)NC(=N)Nc1ccc(Cl)cc1)Nc1ccc(Cl)cc1` [chlorhexidine]: the “reduction of oral malodor” value in data set [3] (chlorhexidine 0.2% rinse alone, 2 weeks, twice daily) is recorded as “insufficient to completely reduce oral malodor”.

For `C[C@@H]1[C@H](O)[C@@H](C)/C=C/C=C/CC/C=C/C=C/C=C/C=C/C(O[C@H]2O[C@H](C)[C@@H](O)[C@H](N)[C@@H]2O)CC2O[C@](O)(CC(O)C(O)CCC(O)CC(O)CC(O)CC(=O)O[C@H]1C)CC(O)C2C(=O)O` (stereo partly shown) [nystatin], in the data set “Solubility in water” (water, form a suspension or dispersion), the solubility in water entry is given as “sparingly soluble or practically insoluble”.
